Data reported in publication PMC7174603, “Functional Analysis of Two Odorant-Binding Proteins, MaltOBP9 and MaltOBP10, in Monochamus alternatus Hope” (Frontiers in Physiology, 2020).

Legend:
MaltOBP10 [1] = target: T1, MaltOBP10 (Monochamus alternatus, UniProt A0A1I9HZL5); assay: fluorescence competitive binding, 1-NPN displacement; conditions: read-out: MaltOBP10 / pH7.4
T1 construct: gene obp10; said to encode mature protein (clone primer starts at ATG)
T1 sequence (A0A1I9HZL5 1-144 limits assumed): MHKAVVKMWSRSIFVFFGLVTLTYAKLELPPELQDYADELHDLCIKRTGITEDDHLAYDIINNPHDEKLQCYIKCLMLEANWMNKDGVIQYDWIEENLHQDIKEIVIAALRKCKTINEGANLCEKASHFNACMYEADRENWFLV
From the text: fluorescence competitive binding, 1-NPN displacement on MaltOBP10

MaltOBP9 [2] = target: T2, MaltOBP9 (Monochamus alternatus, UniProt A0A1I9HZK8); assay: as above; conditions: read-out: MaltOBP9 / pH7.4
T2 construct: gene obp9; said to encode mature protein (clone primer starts at ATG)
T2 sequence (A0A1I9HZK8 1-140 limits assumed): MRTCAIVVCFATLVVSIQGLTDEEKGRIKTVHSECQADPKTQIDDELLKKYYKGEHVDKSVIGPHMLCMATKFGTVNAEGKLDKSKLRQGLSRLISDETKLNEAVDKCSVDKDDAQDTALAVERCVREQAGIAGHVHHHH
From the text: fluorescence competitive binding, 1-NPN displacement on MaltOBP9

MaltOBP9 [3] = target: T2, MaltOBP9; assay: biochemical; design: 1-NPN fluorescence displacement competitive binding to 2 uM recombinant OBP; Ki from IC50
Description: (§1) Fluorescence-binding assays were performed to determine the binding affinities of MaltOBP9 and MaltOBP10 with 17 volatiles in neutral and acidic pH conditions separately using N-phenyl-1-naphthylamine (1-NPN) as the fluorescent probe. 1-NPN and all of the other chemicals used in the binding assays were purchased from Sigma-Aldrich (St. Louis, MO, United States). All of the ligand stock solutions were prepared in spectrophotometric grade methanol. The binding constants for 1-NPN were determined by adding aliquots of 1 mM 1-NPN to separate samples containing 2 μM of each OBP in 50 mM Tris–HCl at pH 7.4 and room temperature. The binding of 1-NPN was measured at an excitation wavelength of 337 nm and the fluorescence intensity was recorded between 300 and 600 nm during a high-speed scan using an RF-5301PC fluorescence spectrophotometer with a 1-cm light path and a quartz cuvette. Saturation curves were constructed for the binding of 1-NPN with the OBPs and the dissociation constant (Kd) of the binding reaction was calculated by performing Scatchard analysis of the data using the Prism 5 program (GraphPad, La Jolla, CA, United States). The binding analyses were performed based on the assumption that the protein was completely active and that the stoichiometry of binding was 1:1 at saturation. Aliquots of the competitor ligand were added to a sample containing 2 μM of each separate OBP and a standard concentration of 1-NPN. […] The binding data were collected during three independent high-speed scans. Ki representing the Kd of the competitor was determined based on the IC50 value (half maximal inhibitory concentration) for the competitor as the concentration of the competitor that displaced 50% of the bound 1-NPN at a standard total 1-NPN concentration (bound plus free) at equilibrium. Ki was calculated according to the following equation: Ki = [IC50]/(1+[1-NPN]/K), where 1-NPN is the free concentration of 1-NPN and K1–NPN is Kd for the 1-NPN-OBP binding reaction determined by Scatchard analysis ([Campanacci et al., 2001]). After confirmation by SDS-PAGE, the purified MaltOBP9 and MaltOBP10 proteins were used in fluorescence-binding assays to determine their binding affinities with different volatiles that come from forest. First, we analyzed the binding of the fluorescent probe 1-NPN with MaltOBP9 and MaltOBP10 (Figure 6). […] The binding affinities (Ki < 50) ([Zheng et al., 2016]) with all of the ligands indicted the broad binding ranges of MaltOBP9 and MaltOBP10 at pH 7.4. […] The change in the pH appeared to have less impact on the binding with MaltOBP10.

MaltOBP10 [4] = target: T1, MaltOBP10; assay: biochemical; design: 1-NPN fluorescence displacement competitive binding to 2 uM recombinant OBP; Ki from IC50
Description: as §1

MaltOBP9 [5] = target: T2, MaltOBP9; assay: fluorescence titration, Scatchard analysis; format: binding; conditions: read-out: MaltOBP9 / pH7.4
From the text: fluorescence titration, Scatchard analysis on MaltOBP9

MaltOBP10 [6] = target: T1, MaltOBP10; assay: biochemical; design: direct 1-NPN fluorescence saturation binding to 2 uM recombinant OBP; Kd by Scatchard analysis; conditions: pH 5.0; read-out: MaltOBP10 / pH5.0
Description: (§2) Fluorescence-binding assays were performed to determine the binding affinities of MaltOBP9 and MaltOBP10 with 17 volatiles in neutral and acidic pH conditions separately using N-phenyl-1-naphthylamine (1-NPN) as the fluorescent probe. 1-NPN and all of the other chemicals used in the binding assays were purchased from Sigma-Aldrich (St. Louis, MO, United States). All of the ligand stock solutions were prepared in spectrophotometric grade methanol. The binding constants for 1-NPN were determined by adding aliquots of 1 mM 1-NPN to separate samples containing 2 μM of each OBP in 50 mM Tris–HCl at pH 7.4 and room temperature. The binding of 1-NPN was measured at an excitation wavelength of 337 nm and the fluorescence intensity was recorded between 300 and 600 nm during a high-speed scan using an RF-5301PC fluorescence spectrophotometer with a 1-cm light path and a quartz cuvette. Saturation curves were constructed for the binding of 1-NPN with the OBPs and the dissociation constant (Kd) of the binding reaction was calculated by performing Scatchard analysis of the data using the Prism 5 program (GraphPad, La Jolla, CA, United States). […] Ki was calculated according to the following equation: Ki = [IC50]/(1+[1-NPN]/K), where 1-NPN is the free concentration of 1-NPN and K1–NPN is Kd for the 1-NPN-OBP binding reaction determined by Scatchard analysis ([Campanacci et al., 2001]). […]

MaltOBP9 [7] = target: T2, MaltOBP9; assay: biochemical; design: direct 1-NPN fluorescence saturation binding to 2 uM recombinant OBP; Kd by Scatchard analysis; conditions: pH 5.0; read-out: MaltOBP9 / pH5.0
Description: as §2

MaltOBP10 [8] = target: T1, MaltOBP10; assay: fluorescence titration, Scatchard analysis; format: binding; conditions: read-out: MaltOBP10 / pH7.4
From the text: fluorescence titration, Scatchard analysis on MaltOBP10

[9] = pH 5.0, read-out: MaltOBP9 / pH5.0
[10] = pH 5.0, read-out: MaltOBP10 / pH5.0
[11] = pH 7.4, read-out: MaltOBP10 / pH7.4
[12] = pH 7.4, read-out: MaltOBP9 / pH7.4

Row | SMILES | Ki (MaltOBP10 [1]) | Ki (MaltOBP9 [2]) | Ki (MaltOBP9 [3]; [9]) | Ki (MaltOBP10 [4]; [10]) | Ki (MaltOBP10 [4]; [11]) | Ki (MaltOBP9 [3]; [12]) | also measured
1 | C=C1CC[C@H]2O[C@]2(C)CC[C@@H]2[C@@H]1CC2(C)C [(−)-caryophyllene oxide] | 16.4 ± 0.4 µM | 15.3 ± 0.94 µM | 39.3 ± 0.73 µM | – | – | – | –
2 | CC1=CC[C@@H]2[C@@H]3[C@H]1[C@@]2(C)CCCC3(C)C [(+)-α-longipinene] | 11.6 ± 0.74 µM | 12.5 ± 0.67 µM | 34.7 ± 0.94 µM | 21.2 ± 1.75 µM | – | – | –
3 | CC1(C)C(=O)[C@@]2(C)CC[C@@H]1C2 [(+)-Fenchone] | – | – | 46.2 ± 2.59 µM | 24.7 ± 1.29 µM | 22.7 ± 1.23 µM | 27.8 ± 1.04 µM | –
4 | CC1=CC[C@@H]2C[C@H]1C2(C)C [(+)-α-pinene] | 13.3 ± 1.94 µM | – | > 50 µM | 17.3 ± 3.16 µM | – | 21.1 ± 2.84 µM | –
5 | C=C1[C@H]2CC[C@@H]3[C@H]2[C@H](C(C)C)CC[C@]13C [(+)-Sativene] | – | – | – | – | – | – | Ki (MaltOBP9 [2]; pH 7.4, 50 mM Tris-HCl, room temperature, competitive with 1-NPN, 2 μM protein): 19.5 ± 0.36 µM
6 | Cc1cc(C(C)(C)C)c(O)c(C(C)(C)C)c1 [Butylated hydroxytoluene] | 20.1 ± 2.75 µM | 9.58 ± 0.28 µM | 3.57 ± 0.58 µM | – | – | – | –
7 | C=C(C)[C@@H]1CC=C(C)CC1 [S-(−)-Limonene] | 18.4 ± 0.67 µM | – | 12 ± 0.86 µM | 51.7 ± 5.74 µM | – | 29.2 ± 1.81 µM | –
8 | CC1=CCC2C(C1)C2(C)C (stereo not drawn) [3-carene] | – | – | 38.12 ± 0.23 µM | 32.5 ± 4.28 µM | 42.5 ± 0.82 µM | 25.1 ± 0.76 µM | –
9 | C=C(C)[C@H]1CC=C(C)CC1 [R-(+)-Limonene] | – | 17.1 ± 2.24 µM | > 50 µM | 55.5 ± 9.88 µM | 23.9 ± 1.89 µM | – | –
10 | c1ccc(Nc2cccc3ccccc23)cc1 [1-NPN] | – | – | – | – | – | – | Kd (MaltOBP9 [5]): 1.7 ± 0.21 µM; Kd (MaltOBP10 [6]): 5.88 ± 0.69 µM; Kd (MaltOBP9 [7]): 0.62 ± 0.18 µM; Kd (MaltOBP10 [8]): 1.35 ± 0.09 µM
11 | C=C1[C@@H]2CC[C@@H](C2)C1(C)C [Camphene] | – | – | > 50 µM | 14.8 ± 0.57 µM | 20.6 ± 1.22 µM | 22.6 ± 1.08 µM | –
12 | Cc1ccc(C(C)C)cc1 [p-cymene] | – | 11.7 ± 0.23 µM | > 50 µM | 35.4 ± 0.63 µM | 23.8 ± 2.33 µM | – | –
13 | C=C1CC/C=C(\C)CC[C@@H]2[C@@H]1CC2(C)C [β-Caryophyllene] | 16.3 ± 1.97 µM | 16.36 ± 0.04 µM | 129 ± 9.52 µM | 23.5 ± 1.72 µM | – | – | –
14 | C=C(C)C1CCC2(C)OC2C1 (single isomer, unassigned; (+)) [(+)-Limonene oxide] | – | – | – | – | – | – | Ki (MaltOBP10 [4]; pH 5.0, binder, read-out: MaltOBP10 / pH5.0): 46.1 ± 4.9 µM; Ki (MaltOBP10 [4]; pH 7.4, binder, read-out: MaltOBP10 / pH7.4): 19.8 ± 1.78 µM; Ki (MaltOBP9 [3]; pH 5.0, binder, read-out: MaltOBP9 / pH5.0): 48.8 ± 4.51 µM; Ki (MaltOBP9 [3]; pH 7.4, binder, read-out: MaltOBP9 / pH7.4): 43.3 ± 0.74 µM
15 | C=CC(=C)CCC=C(C)C [Myrcene] | 12.4 ± 0.5 µM | 7.77 ± 0.14 µM | 3.96 ± 0.78 µM | 19.37 ± 0.02 µM | – | – | –
16 | CC1(C)[C@H]2CC[C@]1(C)C(=O)C2 (racemic) [Camphor] | – | – | 50.5 ± 3.68 µM | 21.2 ± 3.49 µM | 26.2 ± 1.76 µM | 25.9 ± 0.76 µM | –
17 | C=C1CC[C@@H]2C[C@H]1C2(C)C [(+)-β-pinene] | – | – | 21.7 ± 0.65 µM | 62.8 ± 1.08 µM | 25.8 ± 3.78 µM | – | –
18 | CC1=CCC(=C(C)C)CC1 [α-terpinolene] | 17.5 ± 0.33 µM | – | 18.5 ± 0.23 µM | 15.6 ± 1.44 µM | – | 22.2 ± 0.34 µM | –
